Laboratory results as given in patent US11214594B2, “Antimicrobial peptide having synergistic antibacterial effect with antibiotics on multidrug resistant bacteria, and use thereof” (priority 2016, dated 2022).
Converted amounts (≈) assume the structure as drawn. Read-outs that look alike come from different tables or passages of the source. Where a SMILES comes first, the peptide text is derived from it.

Assays:
[1] = test system: MDREC 1229; test: microbe, parasite or virus in culture; type: cell-based, Escherichia coli
Procedure: (§1) For the antibacterial activity, a minimal inhibitory concentration (MIC) of a peptide in which fungus bodies were not split in an MH medium with sufficient nutrients was measured.
(§2) Specifically, the strains described in the following [Table 2] were purchased and diluted with an MH medium such that the number of bacteria was 2×10^6 colony-forming units (CFUs), 100 μl of each of the diluted strains was aliquoted into a 96-well microtiter plate, and then 100 μl of a peptide solution diluted with the MH medium (solution diluted stepwise at 2: 1) was added to each well.

[2] = test system: MRSA 3126; type: cell-based, Staphylococcus aureus
Procedure: as §1, §2

[3] = test system: MRSA 3114; type: cell-based, Staphylococcus aureus
Procedure: as §1, §2

[4] = test system: MDRST 8009; type: cell-based, Salmonella typhimurium; conditions: agent alone
Procedure: as §1, §2

[5] = test system: MDRST 8007; test: Minimal inhibitory concentration (MIC), single agent; type: cell-based, Salmonella typhimurium; conditions: agent alone
Procedure: as §1, §2

[6] = test system: MDREC 1238; type: cell-based, Escherichia coli
Procedure: as §1, §2

[7] = test system: MDRPA 2002; type: cell-based, Pseudomonas aeruginosa
Procedure: as §1, §2

[8] = test system: MDRPA 2003; type: cell-based, Pseudomonas aeruginosa
Procedure: as §1, §2

[9] = test system: S. epidermidis; test: microbe, parasite or virus in culture; type: cell-based, Staphylococcus epidermidis
Procedure: as §1, §2

[10] = test system: MDRAB 12036; type: cell-based, Acinetobacter baumannii
Procedure: as §1, §2

[11] = test system: MDRAB 12035; test: microbe, parasite or virus in culture; type: cell-based, Acinetobacter baumannii
Procedure: as §1, §2

[12] = test system: A. baumannii; test: microbe, parasite or virus in culture; type: cell-based, Acinetobacter baumannii
Procedure: as §1, §2

[13] = test system: E. coli; test: microbe, parasite or virus in culture; type: cell-based, Escherichia coli
Procedure: as §1, §2

[14] = test system: E. coli; test: MIC of antibiotic during combined treatment with antimicrobial peptide; type: cell-based, Escherichia coli; conditions: E. coli and A. baumannii; antibiotic MIC with papiliocin
Procedure: Thereafter, the MIC value of each mixed solution was determined by diluting the antibiotic solution with the MH medium, adding 50 μl of the diluted solution to each well, and performing an experiment even under a reversed condition.

[15] = test system: S. typhimurium; test: microbe, parasite or virus in culture; type: cell-based, Salmonella typhimurium
Procedure: as §1, §2

[16] = test system: P. aeruginosa; test: microbe, parasite or virus in culture; type: cell-based, Pseudomonas aeruginosa
Procedure: as §1, §2

[17] = test system: gram-negative bacteria; test: MIC, summary statements for gram-negative bacteria; type: cell-based; conditions: gram-negative bacteria
Procedure: as §1, §2

[18] = test system: B. subtilis; test: microbe, parasite or virus in culture; type: cell-based, Bacillus subtilis
Procedure: as §1, §2

[19] = test system: gram-positive bacteria; test: MIC, summary statements for gram-positive bacteria; type: cell-based
Procedure: as §1, §2

[20] = test system: E. coli; type: cell-based, Escherichia coli; conditions: for Peptide MIC during treatment with erythromycin / Peptide MIC during treatment with linezolid / Peptide MIC during treatment with vancomycin: E. coli
Procedure: (§3) Specifically, the strains described in [Table 2] were prepared and diluted with an MH medium such that the number of bacteria was 2×10^6 colony-forming units (CFUs) per 1 ml, 100 μl of the diluted strains was each aliquoted into a 96-well microtiter plate, and then 50 μl of a peptide solution diluted with the MH medium from the MIC value (solution diluted stepwise at 2: 1) was added to each well. Thereafter, the MIC value of each mixed solution was determined by diluting the antibiotic solution with the MH medium, adding 50 μl of the diluted solution to each well, and performing an experiment even under a reversed condition.

[21] = test system: A. baumannii; test: MIC of antimicrobial peptide during combined treatment with antibiotic; type: cell-based, Acinetobacter baumannii
Procedure: as §3

[22] = test system: S. aureus; test: microbe, parasite or virus in culture; type: cell-based, Staphylococcus aureus
Procedure: as §1, §2

[23] = linezolid 32 μg/ml (Conc./MIC 1/8)
[24] = linezolid 64 μg/ml (Conc./MIC 1/4)
[25] = vancomycin 512 μg/ml (Conc./MIC 1/2)
[26] = vancomycin 1024 μg/ml (Conc./MIC 1)

CC[C@H](C)[C@H](NC(=O)CN)C(=O)NCC(=O)N[C@@H](C)C(=O)N[C@H](C(=O)N[C@@H](CC(C)C)C(=O)N[C@@H](CCCCN)C(=O)N[C@H](C(=O)N[C@@H](CC(C)C)C(=O)N[C@H](C(=O)N[C@H](C(=O)NCC(=O)N[C@@H](CC(C)C)C(=O)N1CCC[C@H]1C(=O)N[C@@H](C)C(=O)N[C@@H](CC(C)C)C(=O)N[C@H](C(=O)N[C@@H](CO)C(=O)N[C@@H](Cc1c[nH]c2ccccc12)C(=O)N[C@H](C(=O)N[C@@H](CCCCN)C(=O)N[C@@H](CCCNC(=N)N)C(=O)N[C@@H](CCCCN)C(=O)N[C@@H](CCCNC(=N)N)C(=O)N[C@@H](CCC(N)=O)C(=O)N[C@@H](CCC(N)=O)C(N)=O)[C@@H](C)CC)[C@@H](C)CC)[C@@H](C)O)[C@@H](C)O)C(C)C)C(C)C [Melittin, reference compound]
Minimal inhibitory concentration MIC ([1]; MDREC 1229, agent alone): 16 µg/mL (≈ 5.62 µM)
Minimal inhibitory concentration MIC ([2]; MRSA 3126, agent alone): 16 µg/mL (≈ 5.62 µM)
Minimal inhibitory concentration MIC ([3]; MRSA 3114, agent alone): 8 µg/mL (≈ 2.81 µM)
Minimal inhibitory concentration MIC [4]: 32 µg/mL (≈ 11.2 µM)
Minimal inhibitory concentration MIC [5]: 32 µg/mL (≈ 11.2 µM)
Minimal inhibitory concentration MIC ([6]; MDREC 1238, agent alone): 32 µg/mL (≈ 11.2 µM)
Minimal inhibitory concentration MIC ([7]; MDRPA 2002, agent alone): 16 µg/mL (≈ 5.62 µM)
Minimal inhibitory concentration MIC ([8]; MDRPA 2003, agent alone): 16 µg/mL (≈ 5.62 µM)
Minimal inhibitory concentration MIC ([9]; S. epidermidis, agent alone): 16 µg/mL (≈ 5.62 µM)
Minimal inhibitory concentration MIC ([10]; MDRAB 12036, agent alone): 16 µg/mL (≈ 5.62 µM)
Minimal inhibitory concentration MIC ([11]; MDRAB 12035, agent alone): 8 µg/mL (≈ 2.81 µM)
Minimal inhibitory concentration MIC ([12]; A. baumannii, agent alone): 8 µg/mL (≈ 2.81 µM)

CC[C@H](C)[C@H](NC(=O)CNC(=O)[C@H](CC(=O)O)NC(=O)[C@H](CCCNC(=N)N)NC(=O)[C@@H](NC(=O)[C@H](CC(N)=O)NC(=O)[C@H](CCCNC(=N)N)NC(=O)CNC(=O)[C@@H](NC(=O)[C@H](CCCCN)NC(=O)[C@H](CCC(=O)O)NC(=O)[C@@H](NC(=O)[C@H](CCCCN)NC(=O)[C@H](CCCCN)NC(=O)[C@H](Cc1ccccc1)NC(=O)[C@@H](NC(=O)[C@H](CCCCN)NC(=O)[C@H](Cc1c[nH]c2ccccc12)NC(=O)[C@@H](N)CCCNC(=N)N)[C@@H](C)CC)[C@@H](C)CC)C(C)C)C(C)C)C(=O)N[C@H](C(=O)N[C@@H](CCCCN)C(=O)N[C@@H](C)C(=O)NCC(=O)N1CCC[C@H]1C(=O)N[C@@H](C)C(=O)N[C@H](C(=O)N[C@@H](C)C(=O)N[C@H](C(=O)N[C@H](C(=O)NCC(=O)N[C@@H](CCC(N)=O)C(=O)N[C@@H](C)C(=O)N[C@@H](C)C(=O)N[C@H](C(=O)N[C@H](C(=O)N[C@H](C(=O)N[C@@H](CCCCN)C(N)=O)C(C)C)C(C)C)[C@@H](C)O)C(C)C)C(C)C)C(C)C)[C@@H](C)CC [Papiliocin, reference compound] (H-RWKIFKKIEKVGRNVRDGIIKAGPAVAVVGQAATVVK-NH2; N-terminus and C-terminus assumed)
Minimal inhibitory concentration MIC [1]: 8 µg/mL (≈ 2 µM)
Peptide MIC, single treatment [13]: 8 µg/mL
Minimal inhibitory concentration MIC ([13]; 16 h): 8 µg/mL (≈ 2 µM)
Minimal inhibitory concentration MIC [2]; 3126: >128 µg/mL
Minimal inhibitory concentration MIC [3]; 3114: >128 µg/mL
Synergistic effect of combination with the antibiotics (in words) [14]: does not have a great synergistic effect
Minimal inhibitory concentration MIC [15]: 16 µg/mL (≈ 4 µM)
Minimal inhibitory concentration MIC [16]: 16 µg/mL (≈ 4 µM)
Antibacterial activity (in words) [17]: very high antibacterial activity
Minimal inhibitory concentration MIC [6]: 16 µg/mL (≈ 4 µM)
Minimal inhibitory concentration MIC [7]: 16 µg/mL (≈ 4 µM)
Minimal inhibitory concentration MIC [8]: 16 µg/mL (≈ 4 µM)
Minimal inhibitory concentration MIC [18]: >128 µg/mL
Antibacterial activity (in words) [19]: very low antibacterial activity
Peptide MIC during treatment with erythromycin ([20]; erythromycin 16 μg/ml (Conc./MIC 1/8)): 4 µg/mL
Peptide MIC during treatment with erythromycin ([20]; erythromycin 32 μg/ml (Conc./MIC 1/4)): 4 µg/mL
Peptide MIC during treatment with erythromycin ([20]; erythromycin 64 μg/ml (Conc./MIC 1/2)): 4 µg/mL
Peptide MIC during treatment with erythromycin ([20]; erythromycin […] (Conc./MIC 1)): 0 µg/mL
Peptide MIC during treatment with linezolid [20, 23]: 8 µg/mL
Peptide MIC during treatment with linezolid [20, 24]: 4 µg/mL
Peptide MIC during treatment with linezolid ([20]; linezolid […] (Conc./MIC 1)): 0 µg/mL
Peptide MIC during treatment with linezolid ([20]; linezolid […] (Conc./MIC 1/2)): 4 µg/mL
Peptide MIC during treatment with vancomycin [20, 25]: 2 µg/mL
Peptide MIC during treatment with vancomycin [20, 26]: 0 µg/mL
Peptide MIC during treatment with vancomycin ([20]; vancomycin […] (Conc./MIC 1/4)): 2 µg/mL
Peptide MIC during treatment with vancomycin ([20]; vancomycin […] (Conc./MIC 1/8)): 4 µg/mL
Synergistic effect on peptide MIC when mixed with antibiotics (in words) ([20]; papiliocin as comparative control (Table 34)): does not have a synergistic effect
Minimal inhibitory concentration MIC [9]: >128 µg/mL
Minimal inhibitory concentration MIC [10]: 16 µg/mL (≈ 4 µM)
Minimal inhibitory concentration MIC [11]: 8 µg/mL (≈ 2 µM)
Minimal inhibitory concentration MIC [12]: 8 µg/mL (≈ 2 µM)
Peptide MIC, peptide alone [12]: 8 µg/mL
Peptide MIC during treatment with erythromycin ([21]; erythromycin 4 μg/ml (Conc./MIC 1/8)): 8 µg/mL
Peptide MIC during treatment with erythromycin ([21]; erythromycin 8 μg/ml (Conc./MIC 1/4)): 4 µg/mL
Peptide MIC during treatment with erythromycin ([21]; erythromycin 16 μg/ml (Conc./MIC 1/2)): 4 µg/mL
Peptide MIC during treatment with erythromycin ([21]; erythromycin 32 μg/ml (Conc./MIC 1)): 0 µg/mL
Peptide MIC during treatment with linezolid [21, 23]: 8 µg/mL
Peptide MIC during treatment with linezolid [21, 24]: 4 µg/mL
Peptide MIC during treatment with linezolid ([21]; linezolid […] (Conc./MIC 1)): 0 µg/mL
Peptide MIC during treatment with linezolid ([21]; linezolid […] (Conc./MIC 1/2)): 4 µg/mL
Peptide MIC during treatment with vancomycin [21, 25]: 2 µg/mL
Peptide MIC during treatment with vancomycin [21, 26]: 0 µg/mL
Peptide MIC during treatment with vancomycin ([21]; vancomycin […] (Conc./MIC 1/4)): 2 µg/mL
Peptide MIC during treatment with vancomycin ([21]; vancomycin […] (Conc./MIC 1/8)): 4 µg/mL
Minimal inhibitory concentration MIC [22]: >128 µg/mL
